Data on 45 compounds can be found in PMC9788509, “Arginine Homopeptide of 11 Residues as a Model of Cell-Penetrating Peptides in the Interaction with Bacterial Membranes” (Membranes, 2022).

“And” between values parts separate entries of the source, which are not always exact repeats. Identical values can stand only once. No end group written: not given here. Bounds are passed on as bounds.

In one series the test system is Escherichia coli (ML35). In kind it is cell-based. The following applies: E. coli ML35; 1 × 10^7 CFU/mL; 1% TSB, 10 mM Hepes; 10, 20 and 30 μM peptide, 1 h at 37 °C; serial dilution, 18 h at 37 °C in complete TSB; turbidity; duplicate. How it is done: (§1) The strains used, Staphylococcus aureus (ATCC 25923) and Escherichia coli (ML35), were obtained from the Public Health Institute of Chile (ISP).
(§2) To determine the antibacterial activity of the peptides, a microplate dilution test was performed. The necessary calculations were completed with a bacterial concentration of 1 × 10^7 CFU/mL and the cells were exposed to 50 µL of Tryptic soy broth (TSB) with 1%, 10 mM of Hepes buffer and 10, 20 and 30 μM of peptide for 1 h at 37 °C. Finally, a serial dilution was performed and incubated for 18 h at 37 °C in complete TSB, and the minimum bactericidal concentration (MCB) was determined depending on the turbidity of the plate. All experiments were completed in duplicate. A synthetic peptide of sequence KKWRWWLKALAKK from the venom of the Bothrops asper snake was used as a positive control for growth inhibition.

In series [1] the test system is Staphylococcus aureus (ATCC 25923). In kind it is cell-based. The conditions noted are these: S. aureus ATCC 25923; 1 × 10^7 CFU/mL; 1% TSB, 10 mM Hepes; 10, 20 and 30 μM peptide, 1 h at 37 °C; serial dilution, 18 h at 37 °C in complete TSB; turbidity; duplicate. How it is done: as §1, §2

RRRRRLRRRRR-NH2 [L6]: the results for the “Minimum Bactericidal Concentration” value (in the series on Escherichia coli (ML35); in series [1]) were more than 30 µM and 28 µM, respectively.
For the compound RRRRRRRPRRR-NH2 [P8], the Percentage of polyproline II, Equation (2) is 49% (2×) and 40% and 50%. The “Minimum Bactericidal Concentration” value in the series with Escherichia coli (ML35) came to 30 µM. Besides, the “Minimum Bactericidal Concentration” value in series [1] was 9 µM.
In the case of RRRRRWRRRRR-NH2 [W6], the “Minimum Bactericidal Concentration” value was found to be 15 µM in the series on Escherichia coli (ML35) and 20 µM in series [1].
RRRRRRRRPRR-NH2 [P9]: the Percentage of polyproline II, Equation (2) is 41% (2×) and 27% and 43%. The “Minimum Bactericidal Concentration” value with Escherichia coli (ML35) turned out to be 20 µM. Also, in series [1], the “Minimum Bactericidal Concentration” value was 10 µM.
Turning to RRRRRRRWRRR-NH2 [W8], the “Minimum Bactericidal Concentration” value (with Escherichia coli (ML35); in series [1]) was 20 µM in each case.
RRRRRRRLRRR-NH2 [L8]: the Percentage of polyproline II, Equation (2) was 51% and 65% (2×) and 62%. Further, the “Minimum Bactericidal Concentration” value in the series with Escherichia coli (ML35) is 18 µM.
For RRRWRRRRRRR-NH2 [W4], the “Minimum Bactericidal Concentration” value (in the series with Escherichia coli (ML35); in series [1]) was 20 µM in each case.
As for `N=C(N)NCCC[C@H](NC(=O)[C@H](CCCNC(=N)N)NC(=O)[C@H](CCCNC(=N)N)NC(=O)[C@H](CCCNC(=N)N)NC(=O)[C@H](CCCNC(=N)N)NC(=O)[C@H](CCCNC(=N)N)NC(=O)[C@H](CCCNC(=N)N)NC(=O)[C@H](CCCNC(=N)N)NC(=O)[C@H](CCCNC(=N)N)NC(=O)[C@H](CCCNC(=N)N)NC(=O)[C@@H](N)Cc1c[nH]c2ccccc12)C(N)=O` [W1], the results for the “Minimum Bactericidal Concentration” value (with Escherichia coli (ML35); in series [1]) were 30 µM and more than 30 µM, respectively.
Consider RRRRWRRRRRR-NH2 [W5], for which the “Minimum Bactericidal Concentration” value was found to be 20 µM in the series on Escherichia coli (ML35) and 10 µM in series [1].
For RRPRRRRRRRR-NH2 [P3], in that order: 28 µM and 8 µM.
For the compound RRRARRRRRRR-NH2 [A4], the Percentage of polyproline II, Equation (2) was 46% (2×) and 58% and 51%. In the series on Escherichia coli (ML35), the “Minimum Bactericidal Concentration” value amounted to 26 µM.
RRRRRRLRRRR-NH2 [L7]: in the series with Escherichia coli (ML35), the “Minimum Bactericidal Concentration” value came to 9 µM.
Turning to RRRRRARRRRR-NH2 [A6], the “Minimum Bactericidal Concentration” value in the series on Escherichia coli (ML35) was 26 µM.
As to RRRRRRRRARR-NH2 [A9], the “Minimum Bactericidal Concentration” value with Escherichia coli (ML35) is more than 30 µM.
On the same count and under the same terms, the result for RRRRRPRRRRR-NH2 [P6] reads 18 µM.
For the compound RRRRRRRRRWR-NH2 [W10], the Percentage of polyproline II, Equation (2) was 46% and 68% and 49% (2×). For the same compound, the “Minimum Bactericidal Concentration” value in the series on Escherichia coli (ML35) came to 20 µM.
For the compound RRRRRRWRRRR-NH2 [W7], the entries for the “Minimum Bactericidal Concentration” value (in the series on Escherichia coli (ML35); in series [1]) were 14 µM and 8 µM, respectively.
Turning to RLRRRRRRRRR-NH2 [L2], the entries for the “Minimum Bactericidal Concentration” value (with Escherichia coli (ML35); in series [1]) were 8 µM and 12 µM, respectively.
Turning to `N=C(N)NCCC[C@H](NC(=O)[C@H](CCCNC(=N)N)NC(=O)[C@H](CCCNC(=N)N)NC(=O)[C@H](CCCNC(=N)N)NC(=O)[C@H](CCCNC(=N)N)NC(=O)[C@H](CCCNC(=N)N)NC(=O)[C@H](CCCNC(=N)N)NC(=O)[C@H](CCCNC(=N)N)NC(=O)[C@H](CCCNC(=N)N)NC(=O)[C@H](CCCNC(=N)N)NC(=O)[C@@H]1CCCN1)C(N)=O` [P1], the “Minimum Bactericidal Concentration” value in the series with Escherichia coli (ML35) came out at 18 µM.
As to `N=C(N)NCCC[C@H](NC(=O)[C@H](CCCNC(=N)N)NC(=O)[C@H](CCCNC(=N)N)NC(=O)[C@H](CCCNC(=N)N)NC(=O)[C@H](CCCNC(=N)N)NC(=O)[C@H](CCCNC(=N)N)NC(=O)[C@H](CCCNC(=N)N)NC(=O)[C@H](CCCNC(=N)N)NC(=O)[C@H](CCCNC(=N)N)NC(=O)[C@@H](N)CCCNC(=N)N)C(=O)N[C@@H](Cc1c[nH]c2ccccc12)C(N)=O` [W11], the “Minimum Bactericidal Concentration” value came out at 20 µM in the series with Escherichia coli (ML35) and 10 µM in series [1].
Turning to `CC(C)C[C@H](NC(=O)[C@H](CCCNC(=N)N)NC(=O)[C@H](CCCNC(=N)N)NC(=O)[C@H](CCCNC(=N)N)NC(=O)[C@H](CCCNC(=N)N)NC(=O)[C@H](CCCNC(=N)N)NC(=O)[C@H](CCCNC(=N)N)NC(=O)[C@H](CCCNC(=N)N)NC(=O)[C@H](CCCNC(=N)N)NC(=O)[C@H](CCCNC(=N)N)NC(=O)[C@@H](N)CCCNC(=N)N)C(N)=O` [L11], the “Minimum Bactericidal Concentration” value in the series on Escherichia coli (ML35) is 30 µM.
With RARRRRRRRRR-NH2 [A2], in the series with Escherichia coli (ML35), the “Minimum Bactericidal Concentration” value was 18 µM.
On to `N=C(N)NCCC[C@H](NC(=O)[C@H](CCCNC(=N)N)NC(=O)[C@H](CCCNC(=N)N)NC(=O)[C@H](CCCNC(=N)N)NC(=O)[C@H](CCCNC(=N)N)NC(=O)[C@@H](N)CCCNC(=N)N)C(=O)N[C@@H](CCCNC(=N)N)C(=O)N[C@@H](CCCNC(=N)N)C(=O)N[C@@H](CCCNC(=N)N)C(=O)N[C@@H](CCCNC(=N)N)C(=O)N1CCC[C@H]1C(N)=O` [P11], for which the “Minimum Bactericidal Concentration” value in the series with Escherichia coli (ML35) turned out to be 30 µM; in series [1], 18 µM.
For the compound `C[C@H](N)C(=O)N[C@@H](CCCNC(=N)N)C(=O)N[C@@H](CCCNC(=N)N)C(=O)N[C@@H](CCCNC(=N)N)C(=O)N[C@@H](CCCNC(=N)N)C(=O)N[C@@H](CCCNC(=N)N)C(=O)N[C@@H](CCCNC(=N)N)C(=O)N[C@@H](CCCNC(=N)N)C(=O)N[C@@H](CCCNC(=N)N)C(=O)N[C@@H](CCCNC(=N)N)C(=O)N[C@@H](CCCNC(=N)N)C(N)=O` [A1], the “Minimum Bactericidal Concentration” value with Escherichia coli (ML35) was more than 30 µM.
For RWRRRRRRRRR-NH2 [W2], the Percentage of polyproline II, Equation (2) was 56% (2×) and 64% and 47%. Moreover, in the series on Escherichia coli (ML35), the “Minimum Bactericidal Concentration” value is more than 30 µM. The “Minimum Bactericidal Concentration” value in series [1] stood at 30 µM.
Consider RRRRRRRRWRR-NH2 [W9], for which the “Minimum Bactericidal Concentration” value is 20 µM in the series with Escherichia coli (ML35) and 10 µM in series [1].
For RRRRRRPRRRR-NH2 [P7], in that order: 10 µM and 7 µM.
Consider `N=C(N)NCCC[C@H](NC(=O)[C@H](CCCNC(=N)N)NC(=O)[C@H](CCCNC(=N)N)NC(=O)[C@H](CCCNC(=N)N)NC(=O)[C@H](CCCNC(=N)N)NC(=O)[C@H](CCCNC(=N)N)NC(=O)[C@H](CCCNC(=N)N)NC(=O)[C@H](CCCNC(=N)N)NC(=O)[C@H](CCCNC(=N)N)NC(=O)[C@H](CCCNC(=N)N)NC(=O)[C@@H](N)CCCNC(=N)N)C(N)=O` [R11], for which the “Minimum Bactericidal Concentration” value with Escherichia coli (ML35) came out at 30 µM.
As to RRRPRRRRRRR-NH2 [P4], the Percentage of polyproline II, Equation (2) is 49% (2×) and 29% and 41%. In the series on Escherichia coli (ML35), the “Minimum Bactericidal Concentration” value was more than 30 µM.
Turning to `CC(C)C[C@H](N)C(=O)N[C@@H](CCCNC(=N)N)C(=O)N[C@@H](CCCNC(=N)N)C(=O)N[C@@H](CCCNC(=N)N)C(=O)N[C@@H](CCCNC(=N)N)C(=O)N[C@@H](CCCNC(=N)N)C(=O)N[C@@H](CCCNC(=N)N)C(=O)N[C@@H](CCCNC(=N)N)C(=O)N[C@@H](CCCNC(=N)N)C(=O)N[C@@H](CCCNC(=N)N)C(=O)N[C@@H](CCCNC(=N)N)C(N)=O` [L1], the “Minimum Bactericidal Concentration” value with Escherichia coli (ML35) was determined as 13 µM; in series [1] it was 9 µM.
In the same order, the values of RRWRRRRRRRR-NH2 [W3] are more than 30 µM and 20 µM.
As for RRRRARRRRRR-NH2 [A5], the “Minimum Bactericidal Concentration” value with Escherichia coli (ML35) was 20 µM.
Regarding RRLRRRRRRRR-NH2 [L3], the “Minimum Bactericidal Concentration” value stood at 10 µM with Escherichia coli (ML35) and 9 µM in series [1].
`C[C@H](NC(=O)[C@H](CCCNC(=N)N)NC(=O)[C@H](CCCNC(=N)N)NC(=O)[C@H](CCCNC(=N)N)NC(=O)[C@H](CCCNC(=N)N)NC(=O)[C@H](CCCNC(=N)N)NC(=O)[C@H](CCCNC(=N)N)NC(=O)[C@H](CCCNC(=N)N)NC(=O)[C@H](CCCNC(=N)N)NC(=O)[C@H](CCCNC(=N)N)NC(=O)[C@@H](N)CCCNC(=N)N)C(N)=O` [A11]: the Percentage of polyproline II, Equation (2) is 49% (2×) and 45% and 50%. Also, the “Minimum Bactericidal Concentration” value in the series on Escherichia coli (ML35) was found to be 20 µM. Further, in series [1], the “Minimum Bactericidal Concentration” value was 8 µM.
As for RRRRRRRRRAR-NH2 [A10], the entries for the “Minimum Bactericidal Concentration” value (in the series on Escherichia coli (ML35); in series [1]) were 10 µM and 6 µM, respectively.
For RRRRRRRRLRR-NH2 [L9], the “Minimum Bactericidal Concentration” value in the series on Escherichia coli (ML35) was 8 µM.
On to RRARRRRRRRR-NH2 [A3], for which the “Minimum Bactericidal Concentration” value with Escherichia coli (ML35) came out at 10 µM.
Consider RRRRLRRRRRR-NH2 [L5], for which the “Minimum Bactericidal Concentration” value with Escherichia coli (ML35) was 18 µM; in series [1] it was 8 µM.
As to RRRRRRRRRLR-NH2 [L10], the “Minimum Bactericidal Concentration” value with Escherichia coli (ML35) was found to be 20 µM.
On the same count and under the same terms, the result for RPRRRRRRRRR-NH2 [P2] reads 30 µM.
For the compound RRRRPRRRRRR-NH2 [P5], the “Minimum Bactericidal Concentration” value in the series on Escherichia coli (ML35) is 28 µM; in series [1], 8 µM.
For RRRRRRRRRPR-NH2 [P10], in that order: 30 µM and 30 µM.
Take RRRRRRARRRR-NH2 [A7]: the “Minimum Bactericidal Concentration” value in the series on Escherichia coli (ML35) was found to be 20 µM.
With RRRLRRRRRRR-NH2 [L4], the “Minimum Bactericidal Concentration” value with Escherichia coli (ML35) came to 20 µM; in series [1], 9 µM.
On to RRRRRRRARRR-NH2 [A8], for which, in the series with Escherichia coli (ML35), the “Minimum Bactericidal Concentration” value is 30 µM.
